Data on one compound can be found in article PMC8718112, “Functional independence of endogenous μ- and δ-opioid receptors co-expressed in cholinergic interneurons” (eLife, 2021).

This assay addresses T1, δ-opioid receptor (DOR) (Mus musculus, UniProt P32300).
T1 construct: gene Oprd1; endogenous receptor on cholinergic interneurons in mouse brain slices
Put plainly: cell-attached recording of firing inhibition reversed by SDM25N; internalization of labeled receptors. The format is cell-based.

T1 sequence (P32300 whole entry): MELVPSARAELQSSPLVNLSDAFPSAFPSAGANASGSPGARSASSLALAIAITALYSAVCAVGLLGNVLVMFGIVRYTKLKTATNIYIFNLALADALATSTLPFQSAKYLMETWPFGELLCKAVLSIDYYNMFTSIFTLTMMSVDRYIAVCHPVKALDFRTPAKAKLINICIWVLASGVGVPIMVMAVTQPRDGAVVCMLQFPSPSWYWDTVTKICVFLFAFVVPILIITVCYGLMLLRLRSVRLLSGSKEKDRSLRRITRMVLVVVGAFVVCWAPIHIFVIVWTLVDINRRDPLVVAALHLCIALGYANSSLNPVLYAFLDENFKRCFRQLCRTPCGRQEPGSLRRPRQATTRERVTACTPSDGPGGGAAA

Usually inhibition stands for the change of the read-out against control, counted positive when it falls. High values mean strong suppression, low ones little suppression. The compound `CC(C)[C@H](NC(=O)[C@H](CCC(=O)O)NC(=O)[C@H](Cc1ccccc1)NC(=O)[C@@H](C)NC(=O)[C@@H](N)Cc1ccc(O)cc1)C(=O)N[C@H](C(=O)NCC(N)=O)C(C)C` [deltorphin II] returned an inhibition at 1 µM of 96.6 ± 2.7%.
